The target of the test is α-glucosidase (Saccharomyces cerevisiae, UniProt P38158). Briefly: In vitro α-glucosidase inhibition assay. As to conditions: for inhibition at 500 µM: read-out: percent inhibition (0.5 mM). The class given is biochemical, S. cerevisiae.

Our source for the IC50 and inhibition values is article PMC9730482 (ACS Omega, 2022).

Structures are written as SMILES.

Chain of α-glucosidase (P38158 whole entry): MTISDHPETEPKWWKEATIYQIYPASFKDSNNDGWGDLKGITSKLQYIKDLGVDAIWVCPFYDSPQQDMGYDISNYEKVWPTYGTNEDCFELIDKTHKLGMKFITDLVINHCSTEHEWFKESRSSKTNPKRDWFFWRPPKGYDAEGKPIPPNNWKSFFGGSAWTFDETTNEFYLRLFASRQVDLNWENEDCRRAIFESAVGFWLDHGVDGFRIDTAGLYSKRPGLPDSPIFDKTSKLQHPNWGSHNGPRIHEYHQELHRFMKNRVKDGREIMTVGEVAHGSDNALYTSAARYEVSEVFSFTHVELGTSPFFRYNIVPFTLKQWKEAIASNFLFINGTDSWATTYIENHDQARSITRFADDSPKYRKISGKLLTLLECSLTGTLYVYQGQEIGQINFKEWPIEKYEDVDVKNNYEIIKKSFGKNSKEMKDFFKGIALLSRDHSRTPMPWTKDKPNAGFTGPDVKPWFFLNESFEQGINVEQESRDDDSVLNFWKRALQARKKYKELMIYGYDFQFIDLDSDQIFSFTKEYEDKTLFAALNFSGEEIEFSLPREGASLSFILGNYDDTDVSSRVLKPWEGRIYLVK

As to `Oc1ccc(C=Nc2ccc3[nH]c(S)nc3c2)cc1` [7a, 4-(((2-Mercapto-1H-benzo[d]imidazol-5-yl)imino)methyl)phenol], the IC50 worked out at 11.8 ± 0.26 µM and the inhibition at 500 µM came out at 95.7%.

Take `Sc1nc2cc(N=Cc3ccc(Cl)cc3)ccc2[nH]1` [7b, 5-((4-Chlorobenzylidene)amino)-1H-benzo[d]imidazole-2-thiol]: the concentration for half-maximal inhibition (IC50) came to 27.3 ± 0.3 µM and the inhibition at 500 µM is 93.2%. The matching figures for `O=[N+]([O-])c1ccc(C=Nc2ccc3[nH]c(S)nc3c2)cc1` [7c, 5-((4-Nitrobenzylidene)amino)-1H-benzo[d]imidazole-2-thiol]: 9.84 ± 0.08 µM and 95.7%.

In the case of `CCN(CC)c1ccc(C=Nc2ccc3[nH]c(S)nc3c2)cc1` [7d, 5-((4-(Diethylamino)benzylidene)amino)-1H-benzo[d]imidazole-2-thiol], inhibition was half-maximal at 5.34 ± 0.16 µM (IC50) and the inhibition at 500 µM was found to be 96.6%. Regarding `COc1cccc(C=Nc2ccc3[nH]c(S)nc3c2)c1O` [7e, 2-(((2-Mercapto-1H-benzo[d]imidazol-5-yl)imino)methyl)-6-methoxyphenol], the IC50 came to 16.4 ± 0.53 µM and the inhibition at 500 µM turned out to be 91.3%. The matching figures for `COc1ccc(C=Nc2ccc3[nH]c(S)nc3c2)c(OC)c1` [7f, 5-((2,4-Dimethoxybenzylidene)amino)-1H-benzo[d]imidazole-2-thiol]: 6.46 ± 0.3 µM and 95%.

As to `COc1ccc(C=Nc2ccc3[nH]c(S)nc3c2)cc1OC` [7h, 5-((3,4-Dimethoxybenzylidene)amino)-1H-benzo[d]imidazole-2-thiol], inhibition was half-maximal at 20.7 ± 0.59 µM (IC50) and the inhibition at 500 µM worked out at 91.7%.

As to `Oc1ccc(C=Nc2ccc3[nH]c(S)nc3c2)c(O)c1` [7i, 4-(((2-Mercapto-1H-benzo[d]imidazol-5-yl)Imino)methyl)benzene-1,3-diol], half-maximal inhibition (IC50) required 0.64 ± 0.05 µM and the inhibition at 500 µM came to 95.4%. The matching figures for `COc1cc(C=Nc2ccc3[nH]c(S)nc3c2)cc(OC)c1OC` [7j, 5-((3,4,5-Trimethoxybenzylidene)amino)-1H-benzo[d]imidazole-2-thiol]: 18.7 ± 0.74 µM and 94.7%. The matching figures for `Sc1nc2cc(N=Cc3cccs3)ccc2[nH]1` [7k, 5-((Thiophen-2-ylmethylene)amino)-1H-benzo[d]imidazole-2-thiol]: 70.3 ± 1.52 µM and 87.6%. The matching figures for `COc1ccccc1C=Nc1ccc2[nH]c(S)nc2c1` [7l, 5-((2-Methoxybenzylidene)amino)-1H-benzo[d]imidazole-2-thiol]: 343.1 ± 1.62 µM and 83.2%. As for `Cc1ccc(C=Nc2ccc3[nH]c(S)nc3c2)cc1` [7m, 5-((4-Methylbenzylidene)amino)-1H-benzo[d]imidazole-2-thiol], the IC50 worked out at 11.1 ± 0.79 µM and the inhibition at 500 µM stood at 94%.

As for `C[C@H]1O[C@H](O[C@H]2[C@H](O)[C@@H](O)[C@@H](O[C@H]3[C@H](O)[C@@H](O)C(O)O[C@@H]3CO)O[C@@H]2CO)[C@H](O)[C@@H](O)[C@@H]1N[C@H]1C=C(CO)[C@@H](O)[C@H](O)[C@H]1O` (stereo partly shown) [acarbose, reference compound], the inhibition at 500 µM worked out at 58.5%.
